Key:
[1] = Suntest exposure (xenon emitter) of bleached hair, 15% extension level in the wet state; conditions: 120 hours Suntest; for mean value of the 15% extension level in the wet state: no rinse
[2] = Suntest exposure (xenon emitter) of permanent-waved natural hair, 15% extension level in the wet state; conditions: Example 2 styling foam (0.5 g UVINUL MS 40 in 100 g composition before aerosol packaging), no rinse, 180 hours Suntest, vs foam without UVINUL MS 40
Protocol: Permanent-waved natural hair receives an application of this foam and then, without this being followed by a rinse, is subjected to 180 hours' exposure to the Suntest, as described in Example 1.

Compound: COc1cc(O)c(C(=O)c2ccccc2)cc1S(=O)(=O)O [UVINUL MS 40, 2-hydroxy-4-methoxybenzophenone-5-sulphonic acid]
- mean values of the 15% extension level in the wet state ([1]; Example 1 shampoo (1 g/100 g UVINUL MS 40), washed five times, vs shampoo base without UVINUL MS 40): substantial improvement
- mean value of the 15% extension level in the wet state ([1]; Example 3 styling gel (0.3 g/100 g UVINUL MS 40), three applications, vs gel without UVINUL MS 40): significant improvement
- mean value of the 15% extension level in the wet state ([1]; Example 4 styling spray (1 g/100 g UVINUL MS 40), one application, vs spray without UVINUL MS 40): improved very appreciably
- mean value of the 15% extension level in the wet state [2]: significant improvement

— US5240695A, “Use of 2-hydroxy-4-methoxybenzophenone-5-sulphonic acid or its salts for protecting the hair against environmental attacking agents, and especially against light and process for protecting the hair using the compound” (L'Oreal, priority 1988, dated 1993)
